This assay addresses T1, Androgen receptor (Rattus norvegicus, UniProt P15207).
T1 sequence (P15207 whole entry): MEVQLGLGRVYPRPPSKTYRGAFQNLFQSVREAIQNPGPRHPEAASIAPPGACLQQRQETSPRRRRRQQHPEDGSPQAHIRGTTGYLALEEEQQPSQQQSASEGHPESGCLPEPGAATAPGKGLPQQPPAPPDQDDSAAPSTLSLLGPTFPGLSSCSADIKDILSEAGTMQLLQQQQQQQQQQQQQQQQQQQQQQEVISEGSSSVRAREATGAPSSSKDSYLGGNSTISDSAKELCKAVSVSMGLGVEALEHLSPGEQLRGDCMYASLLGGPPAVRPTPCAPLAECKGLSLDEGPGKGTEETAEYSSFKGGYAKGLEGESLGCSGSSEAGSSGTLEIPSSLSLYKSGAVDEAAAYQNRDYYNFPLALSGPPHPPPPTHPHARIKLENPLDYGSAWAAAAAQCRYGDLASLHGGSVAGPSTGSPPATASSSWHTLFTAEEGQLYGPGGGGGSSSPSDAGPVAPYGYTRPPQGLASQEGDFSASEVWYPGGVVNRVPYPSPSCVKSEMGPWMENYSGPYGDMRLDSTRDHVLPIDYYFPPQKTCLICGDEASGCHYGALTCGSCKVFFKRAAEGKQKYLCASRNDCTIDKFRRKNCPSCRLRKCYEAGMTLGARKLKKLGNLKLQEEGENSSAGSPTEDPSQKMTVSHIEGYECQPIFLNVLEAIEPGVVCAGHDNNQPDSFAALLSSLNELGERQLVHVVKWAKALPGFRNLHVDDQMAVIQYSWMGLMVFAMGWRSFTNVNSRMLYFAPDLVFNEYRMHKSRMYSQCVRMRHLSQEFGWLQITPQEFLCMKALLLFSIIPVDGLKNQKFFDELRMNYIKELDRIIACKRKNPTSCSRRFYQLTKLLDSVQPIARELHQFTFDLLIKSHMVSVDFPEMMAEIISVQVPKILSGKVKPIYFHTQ

By Ki is commonly meant the equilibrium dissociation constant of an inhibitor or competing ligand from its target. Low values mean a stronger hold on the target, high ones a looser hold on the target.

Description: Inhibition of [3H]mibolerone binding to cytosolic androgen receptor of rat ventral prostate

For the compound `CCC(=O)N(C(=O)CC)c1ccc(SC[C@](C)(O)C(=O)Nc2ccc(C#N)c(C(F)(F)F)c2)cc1`, affinity was put at a Ki of 661 nM.

As to `C[C@](O)(CSc1ccc(NC(=O)CCl)cc1)C(=O)Nc1ccc([N+](=O)[O-])c(C(F)(F)F)c1`, the affinity corresponds to a Ki of 3.31 nM.

`CC(=O)Nc1ccc(S(=O)(=O)C[C@](C)(O)C(=O)Nc2ccc(C#N)c(C(F)(F)F)c2)cc1` showed an inhibitory constant (Ki) of 15.8 nM.

For the compound `CC(=O)Nc1ccc(SC[C@@](C)(O)C(=O)Nc2ccc(C#N)c(C(F)(F)F)c2)cc1`, the Ki was 1380 nM.

In turn, `C[C@](O)(CSc1ccc(N)cc1)C(=O)Nc1ccc([N+](=O)[O-])c(C(F)(F)F)c1` had a Ki of 57.5 nM.

Regarding `C[C@](O)(CS(=O)(=O)c1ccc(NC(=O)CCl)cc1)C(=O)Nc1ccc([N+](=O)[O-])c(C(F)(F)F)c1`, affinity was put at a Ki of 6.92 nM.

The compound `C[C@@](O)(CSc1ccc(NC(=O)CCl)cc1)C(=O)Nc1ccc([N+](=O)[O-])c(C(F)(F)F)c1` showed an inhibition constant Ki of 97.7 nM.

As for `C[C@@](O)(CS(=O)(=O)c1ccc(NC(=O)CCl)cc1)C(=O)Nc1ccc([N+](=O)[O-])c(C(F)(F)F)c1`, the Ki is 234 nM.

The compound `C[C@](O)(CSc1ccc(NS(C)(=O)=O)cc1)C(=O)Nc1ccc([N+](=O)[O-])c(C(F)(F)F)c1` had a Ki of 50.1 nM.

The compound `C[C@](O)(CSc1ccc(NC(=O)C(F)(F)F)cc1)C(=O)Nc1ccc([N+](=O)[O-])c(C(F)(F)F)c1` showed an inhibition constant (Ki) of 2.57 nM.

`CC(=O)Nc1ccc(SC[C@@](C)(O)C(=O)Nc2ccc([N+](=O)[O-])c(C(F)(F)F)c2)cc1` showed an inhibition constant Ki of 123 nM.

`C[C@](O)(CBr)C(=O)Nc1ccc([N+](=O)[O-])cc1` showed a Ki of 33.1 nM.

On to `C[C@](O)(CSc1ccc(N=C=S)cc1)C(=O)Nc1ccc2c(C(F)(F)F)cc(=O)oc2c1`, for which the Ki is 135 nM.

`C[C@@](O)(CBr)C(=O)Nc1ccc2c(C(F)(F)F)cc(=O)oc2c1` gave a Ki of 245 nM.

With `C[C@](O)(CSc1ccccc1)C(=O)Nc1ccc2c(C(F)(F)F)cc(=O)oc2c1`, the inhibition constant Ki was 132 nM.

For the compound `C[C@](O)(CSc1ccc(N)cc1)C(=O)Nc1ccc2c(C(F)(F)F)cc(=O)oc2c1`, the Ki was 288 nM.

Consider `CC(=O)Nc1ccc(SC[C@](C)(O)C(=O)Nc2ccc([N+](=O)[O-])c(C(F)(F)F)c2)cc1`, for which the inhibitory constant (Ki) was 2.88 nM.

With `CC(=O)N(C(C)=O)c1ccc(SC[C@](C)(O)C(=O)Nc2ccc(C#N)c(C(F)(F)F)c2)cc1`, the affinity, expressed as Ki, was 105 nM.

`C[C@](O)(CS(=O)(=O)c1ccc(NS(C)(=O)=O)cc1)C(=O)Nc1ccc([N+](=O)[O-])c(C(F)(F)F)c1` showed a Ki of 15.1 nM.

`C[C@](O)(CBr)C(=O)Nc1ccc([N+](=O)[O-])cc1[N+](=O)[O-]` showed a Ki of 1170 nM.

As to `C[C@](O)(CS(=O)(=O)c1ccc(N)cc1)C(=O)Nc1ccc(C#N)c(C(F)(F)F)c1`, the affinity, expressed as Ki, was 32.4 nM.

As for `C[C@](O)(CBr)C(=O)Nc1ccc2c(C(F)(F)F)cc(=O)oc2c1`, the inhibition constant Ki is 132 nM.

As to `CCC(=O)Nc1ccc(SC[C@](C)(O)C(=O)Nc2ccc(C#N)c(C(F)(F)F)c2)cc1`, the inhibition constant (Ki) was 26.9 nM.

Take `Cc1cc(=O)oc2cc(NC(=O)[C@@](C)(O)CSc3ccc(F)cc3)ccc12`: the Ki was 91.2 nM.

The compound `C[C@@](O)(CSc1ccc(N)cc1)C(=O)Nc1ccc([N+](=O)[O-])c(C(F)(F)F)c1` gave a Ki of 525 nM.

With `C[C@](O)(CS(=O)(=O)c1ccc(NC(=O)C(F)(F)F)cc1)C(=O)Nc1ccc([N+](=O)[O-])c(C(F)(F)F)c1`, the inhibitory constant (Ki) was 6.17 nM.

The compound `CC(=O)Nc1ccc(S(=O)(=O)C[C@@](C)(O)C(=O)Nc2ccc([N+](=O)[O-])c(C(F)(F)F)c2)cc1` had an inhibition constant (Ki) of 589 nM.

Regarding `C[C@](O)(CBr)C(=O)Nc1ccc(N)c(C(F)(F)F)c1`, the affinity, expressed as Ki, was 81.3 nM.

As for `CC(=O)Nc1ccc(SC[C@](C)(O)C(=O)Nc2ccc(C#N)c(C(F)(F)F)c2)cc1` [ACETOTHIOLUTAMIDE], the Ki is 4.9 nM.

Source of the values: ChEMBL document CHEMBL1142681, “Three-dimensional structure-activity relationships of nonsteroidal ligands in complex with androgen receptor ligand-binding domain” (J Med Chem, 2005).
